≈ marks a conversion by molar mass, not a printed value. Where “and” joins values, the source holds several entries; their conditions need not be identical. Equal entries are not always repeated. Structures can show the parent of a compound that is named as a salt.
Columns and labels:
[1] = Water solubility by LC-MS analysis; type: physicochemical; conditions: for solubility: 25 °C, thermodynamic from solid, room temperature (25 ± 1 °C)
Source text: 1-TFA, and 2-TFA with the linkage of L-valine-TFA side chain on either or both of the phenol groups were expected to show an increment of water solubility. We used LC-MS analysis to determine the water solubility of DMCU, 1-TFA, and 2-TFA. Initially, the LC signals detected by ESI+ mode for each compound were assigned as follows: [M + Na]^+ for DMCU, [M + H]^+ for 1-TFA, and [M + 2H]^2+ for 2-TFA (Figure 3A). The extracted ion chromatogram (XIC) was acquired by extracting the m/z signal of 419.1461 for DMCU, 583.2652 for 1-TFA, and 385.1865 for 2-TFA with a tolerance of ±5 ppm for each sample. The retention time of signals obtained from reverse phase liquid chromatography (RPLC) was 5.15 min (DMCU), 3.97 min (1-TFA), and 3.22 min (2-TFA) (Figure 3B). The limit of quantification was 0.16 ng for DMCU (S/N = 375.81) and 1 ng for 1-TFA (S/N = 231.24) or 2-TFA (S/N = 131.19). […] Next, to determine the water solubility of DMCU, 1-TFA and 2-TFA, aqueous solutions of these compounds at different concentrations were prepared for the generation of corresponding calibration curves.
The quantitative analysis was performed using LC-MS and the results were shown in Figure 3C–E. Corresponding saturated water solutions were prepared and then diluted with ultrapure water for LC-MS analysis. […] For the analysis of DMCU water solubility, a clear solution of DMCU in 40% MeOH and 60% water (with a concentration of 1000 ppm) was prepared and divided into four portions. Each part was diluted with an appropriate amount of ultrapure water, resulting in DMCU precipitates, and the precipitates were then removed by centrifugation to give four samples with theoretical concentrations of 0.8, 4, 20, 100 ppm, respectively. The calculated concentrations of these […] samples were decided by comparing the LC-MS signals of corresponding samples to the calibration curves. (Figure 3F). The maximum concentration of DMCU in water was confirmed as 18 ppm at room temperature.
The stock solutions of 1-TFA and 2-TFA were prepared by dissolving 20 mg of 1-TFA and 2-TFA, respectively, in 1 mL of 1% formic acid(aq). The standard solution of 1-TFA or 2-TFA of 0.5, 1.25, 2.5, 5 and 12.5 μg/mL was prepared by diluting the aforementioned stock solution with an adequate amount of 40% methanol in ultrapure water. The stock solution of DMCU was prepared by dissolving 10 mg of DMCU in 1 mL of methanol. The DMCU stock solution was diluted with 40% methanol in ultrapure water to afford three standard solutions with concentrations of 0.08, 0.4, and 2 μg/mL.
The saturated aqueous solutions of compound 1-TFA and 2-TFA were prepared by a three-steps sequence including supersaturated solution preparation (addition of 20 mg compounds into 50 μL ultrapure water), centrifugation (10 min at 14,000× g), and collection of the resulting supernatants to afford the desired solutions. The saturated aqueous solutions were then diluted by ultrapure water as the ratio of 1 to 100,000 for LC-MS analysis.
The LC-MS system consisted of an ultraperformance liquid chromatography (UPLC) system (ACQUITY UPLC I-Class, Waters, Milford, MA, USA and an ESI/APCI source of 4 kDa quadrupole time-of-flight mass spectrometer (Waters VION, Waters, Milford, MA, USA). A BEH C18 column (2.1 × 100 mm, Walters, Milford, MA, USA) was equipped to perform chromatographic separation. The flow rate of 0.2 mL/min with a column temperature of 35 °C was set for each sample injection. The elution started with 60% mobile phase A (ultrapure water + 0.1% formic acid) and 40% mobile phase B (100% methanol + 0.1% formic acid), then held at 40% B for 0.5 min, raised to 95% B in 5.5 min, held at 95% B for 1 min, and then lowered to 40% B in 1 min. The column was equilibrated by pumping 40% B for 4 min. […]

A549 = test: In vitro antiproliferative MTT assay; type: cell-based; conditions: Homo sapiens, A549, 72 h, mean ± SD
Protocol: (§1) Human NSCLC cell lines (NCI-H460, NCI-H358 and A549) were obtained from ATCC. All cell lines were grown in RPMI medium supplemented with 10% fetal bovine serum (FBS) and antibiotics and incubated at 37 °C in a humidified atmosphere with 5% CO2.
(§2) Antiproliferative activities to various compounds was assessed using MTT assay. In brief, 2000–5000 cells were seeded in each well of 96-well plates and incubated at 37 °C overnight before drug treatment. After a three-day drug treatment, MTT solution was added to each well and the plates were further incubated at 37 °C for 6 h. Measurement of cell viability was assessed by absorbance at 570 nm. The IC50 values for each drug were determined using CompuSyn software based on the median-effect principle and plot.

NCI-H358 = test: In vitro antiproliferative MTT assay; type: cell-based; conditions: Homo sapiens, NCI-H358, 72 h, mean ± SD
Protocol: as §1, §2

NCI-H460 = test: In vitro antiproliferative MTT assay; type: cell-based; conditions: Homo sapiens, NCI-H460, 72 h, mean ± SD
Protocol: as §1, §2

NCI-H460 cells = test: Intracellular uptake and bioconversion by LC-MS of cell extracts; type: in vitro ADME, Human; conditions: 10 μM
Protocol: To test our hypothesis, intracellular uptake of DMCU, 1-TFA, and 2-TFA were evaluated in NCI-H460 cells which cells were more sensitive to 1-TFA and 2-TFA than DMCU. The intracellular drug uptake was generally evaluated using a fluorescence microscope or flow cytometry. However, the extremely similar chromophores among DMCU, 1-TFA, and 2-TFA caused failure in detection of individual signals by these two methodologies and therefore drew us to develop a versatile LC-MS based analysis for the cellular uptake evaluations. To estimate the cellular uptake, NCI-H460 cells were treated with each compound for the indicated time periods and the cell extracts were then subjected to LC-MS analysis to determine the intracellular levels of DMCU, 1-TFA, and […] (Figure 4). In the treatment groups, the intracellular levels of each compound were detected by LC-MS where the amount of the compound was quantified by comparing the LC-MS signals of cellular extracts to the corresponding drug calibration curves. […] The maximal uptake levels of 1-TFA and DMCU were detected by 60 ng and 7 ng, respectively, at 60 min after treatment (Figure 4A,B). In 2-TFA treated group, the maximal cellular uptakes occurred during the time interval from 30 to 60 min after drug treatment and acquired 100 ng of DMCU, 12 ng of 1-TFA and 1.2 ng of 2-TFA (Figure 4A–C). […] The cellular uptake efficiency of H460 cells was then evaluated in terms of the total quantity of DMCU, 1-TFA, and 2-TFA. […]

[2] = Storage stability by HPLC purity / 1H NMR; type: physicochemical; conditions: room temperature
Protocol: The procedures employed for the synthesis of targeted compounds 1 and 2 are depicted in Scheme 1. The required DMCU was prepared according to a three-step sequence reported in the literature. Initially, the commercially available Boc-L-valine 3 was reacted with 2-aminoethanol 4 in the presence of HOTT and Et3N to provide the amide product 5 in 82% yield. Under treatment with 4-nitrophenyl chloroformate and DIPEA, 5 was converted into 6 in 87% yield. One equivalent or excess amount of 6 was coupled with the deprotonated DMCU, formed in situ by the treatment of DMCU with Cs2CO3, to afford compound 7 and 8, respectively. Compound 7 and 8 thus obtained were subjected to Boc deprotection under the standard conditions to give 1 and 2, respectively. The preliminary stability test was performed with NMR by applying 2 as a typical example. […] Based on our previous experience in the synthesis of DMCU-HMP, the instability could be ascribed to the cross-hydrolysis of carbonate group by the terminal amino group of side chain. Salt formation reactions of the N-terminal L-valine were then carried out to cap the nucleophilic amino group. […] 2-TFA is also stable in DMSO solution (0.1 M concentration). After 6-day storage at room temperate, the purity of 2-TFA remained intact. Accordingly, a similar salt formation procedure was employed to produce the stable 1-TFA. Compound 1-TFA along with 2-TFA were then applied for the following evaluations.
Figure 2 The stability assessments of 2 and 2-TFA. (A) A clear solution of 2 in d-chloroform was subjected to a purity assessment by ^1H NMR spectroscopy at various storage times (fresh prepared (≤1 h); 1 day; 4 days). (B) The HPLC purity of fresh prepared 2-TFA was 95.74%. The fresh prepared 2-TFA in a solid state was stored at room temperature for another 6 days and then dissolved in water for HPLC analysis. The HPLC purity was decided as 95.55%. The fresh prepared 2-TFA was dissolved in DMSO and the resulting solution was stored at room temperature for another 6 days. HPLC purity of 2-TFA in the DMSO solution was 94.66%. […]

[3] = test system: NCI-H460, NCI-H358 and A549 cell lines; test: In vitro antiproliferative MTT assay, range over the NSCLC lines; type: cell-based; conditions: Homo sapiens, read-out: IC50 values in these cell lines
Protocol: as §1, §2

MDA-MB-231 breast cancer = conditions: cited from earlier work
[4] = test system: HCT-116 colon cancer cell; conditions: cited from earlier work

## COc1cc(/C=C/C(=O)C(C)(C)C(=O)/C=C/c2ccc(OC(=O)OCCNC(=O)[C@@H](N)C(C)C)c(OC)c2)ccc1O [Compound 1-TFA]
[1]; water, LC-MS
  solubility: 250 mg/mL
[1]; water, room temperature
  fold increased solubility compared to DMCU: 13,700 fold and > 10,000 fold
A549
  IC50: 3.17 ± 0.14 µM
NCI-H358
  IC50: 1.92 ± 0.13 µM
NCI-H460
  IC50: 1.95 ± 0.16 µM
NCI-H460 cells; 1-TFA-treated NCI-H460 cells, at 60 min after treatment
  maximal uptake level: intracellular 1-TFA: 60 ng

## COc1cc(/C=C/C(=O)C(C)(C)C(=O)/C=C/c2ccc(OC(=O)OCCNC(=O)[C@@H](N)C(C)C)c(OC)c2)ccc1OC(=O)OCCNC(=O)[C@@H](N)C(C)C [Compound 2-TFA]
[1]; water, LC-MS
  solubility: 376 mg/mL
[1]; water, room temperature
  fold increased solubility compared to DMCU: 20,800 fold and > 10,000 fold
A549
  IC50: 1.99 ± 0.24 µM
NCI-H358
  IC50: 1.26 ± 0.06 µM
NCI-H460
  IC50: 1.69 ± 0.04 µM
NCI-H460 cells; 2-TFA-treated NCI-H460 cells, 30 to 60 min after drug treatment
  maximal cellular uptake: intracellular 2-TFA: 1.2 ng
[2]; DMSO solution (0.1 M), 6 days, fresh prepared 95.74%
  HPLC purity after storage in DMSO solution: 94.66%
[2]; solid state, 6 days, fresh prepared 95.74%
  HPLC purity after storage as solid: 95.55%

## COc1cc(/C=C/C(=O)C(C)(C)C(=O)/C=C/c2ccc(OC(=O)OCCNC(=O)[C@@H](N)C(C)C)c(OC)c2)ccc1OC(=O)OCCNC(=O)[C@@H](N)C(C)C [Compound 2]
[2]; solution in d-chloroform, fresh, 1 day, 4 days
  stability by 1H NMR (in words): gradually degraded into unidentified products

## COc1cc(/C=C/C(=O)C(C)(C)C(=O)/C=C/c2ccc(O)c(OC)c2)ccc1O [DMCU, 4,4-Dimethylcurcumin]
[1]; room temperature, dilution of 40% MeOH solution with water, precipitate removed, LC-MS
  maximum concentration in water: 18 ppm
[1]; water
  water solubility (in words): virtually insoluble in water
[1]; water, LC-MS
  solubility: 0.018 mg/mL (≈ 45.4 µM)
A549
  IC50: 2.5 ± 0.03 µM
NCI-H358
  IC50: 1.62 ± 0.12 µM
NCI-H460
  IC50: 2.13 ± 0.16 µM
[3]
  IC50: 1.62 to 2.5 µM
NCI-H460 cells; DMCU-treated NCI-H460 cells, at 1–2 h post-drug treatment, extract of approx. 1 × 10^6 cells
  maximal uptake: intracellular DMCU: about 100 ng

## COc1cc(/C=C/C(=O)C(C)(C)C(=O)/C=C/c2ccc(OC(=O)C(C)(CO)CO)c(OC)c2)ccc1OC(=O)C(C)(CO)CO [DMCU-HMP, 4,4-dimethyl substituted curcuminoid 2,2-bis(hydroxymethyl)propionate]
MDA-MB-231 breast cancer
  IC50: 2.2 µM
[4]
  IC50: 3.1 µM
